Our source for the EC50 values is publication PMC7949142, “NAD(H) phosphates mediate tetramer assembly of human C-terminal binding protein (CtBP)” (The Journal of Biological Chemistry, 2021).

Assay type in all cases: binding
The target in assay [1] is T1, CtBP1 (Homo sapiens, UniProt Q13363). The assay can be described thus: SEC-MALS tetramer assembly, concentration dependence. On the set-up: 28–440.
The next assay deals with T2, CtBP2 (Homo sapiens, UniProt P56545).
T2 construct: 31–445
The description is as above.

In assay [2] the target is T1, CtBP1. The assay can be described thus: SEC-MALS tetramer assembly. Set-up: 28–375 (crystal); 28–440 (SEC-MALS).

The structures appear in SMILES notation.

With `Nc1ncnc2c1ncn2[C@@H]1O[C@H](COP(=O)(O)OP(=O)(O)O)[C@@H](O)[C@H]1O` [ADP], the results for the half-maximal effective concentration (EC50) at CtBP1 [1] and on CtBP2 were about 52 µM and about 43 µM, respectively.
`Nc1ncnc2c1ncn2[C@@H]1O[C@H](COP(=O)(O)O)[C@@H](O)[C@H]1O` [AMP]: the EC50 on CtBP1 [2] is about 66 µM.
